PMC5224920, “Assessing the mechanism and therapeutic potential of modulators of the human Mediator complex-associated protein kinases” (eLife, 2016)

Tested on: 12 single or co-culture in vitro tissue models of primary cells
Assay: Culture/co-culture cell model panel, extracellular biomarkers (DiscoveRx); for CCL2/MCP-1: reference of the scale not given here; for CD141/Thrombomodulin: reference of the scale not given here; for CD142/Tissue Factor: reference of the scale not given here; for CD38: reference of the scale not given here; for CD40: reference of the scale not given here; for CD69: reference of the scale not given here; for CXCL8/IL-8: reference of the scale not given here; for CXCL9/MIG: reference of the scale not given here; for IL-1alpha: reference of the scale not given here; for M-CSF: reference of the scale not given here; for SRB: reference of the scale not given here; for sPGE2: reference of the scale not given here; for sTNF-alpha: reference of the scale not given here
Format: cell-based, human
[1] = HDF3CGF stimulated fibroblasts, 4.12E1 nM
[2] = HDF3CGF stimulated fibroblasts, 4.57E0 nM
[3] = HPNo Huvec+PBMC unstimulated, 1.00E4 nM
[4] = HPNo Huvec+PBMC unstimulated, 1.11E3 nM
[5] = HPNo Huvec+PBMC unstimulated, 1.23E2 nM
[6] = HPNo Huvec+PBMC unstimulated, 1.37E1 nM
[7] = HPNo Huvec+PBMC unstimulated, 3.33E3 nM
[8] = HPNo Huvec+PBMC unstimulated, 3.70E2 nM
[9] = HPNo Huvec+PBMC unstimulated, 4.12E1 nM
[10] = HPNo Huvec+PBMC unstimulated, 4.57E0 nM

Compound `Cc1n[nH]c2ncc(C(=O)N3CCC[C@H]3c3ccc(Cl)cc3)cc12` [CMPD4] has a CXCL9/MIG [1] of -0.024, a CXCL10/IP-10 [1] of 0.059 and a CXCL11/I-TAC [1] of -0.035. For the same compound, the “Collagen I” value [1] was 0.021, the “Collagen III” value [1] was 0.082 and the EGFR [1] was -0.094. It also gave a M-CSF [1] of -0.046, an MMP-1 [1] of -0.00129 and a PAI-I [1] of 0.033. For the same compound, the Proliferation_72hr [1] was -0.178, the SRB [1] was 0.010 and the TIMP-1 [1] was -0.070. It also gave a TIMP-2 [1] of 0.099, a CCL2/MCP-1 [2] of -0.020 and a CD54/ICAM-1 [2] of -0.041. It also gave a CD106/VCAM-1 [2] of 0.047, a CXCL8/IL-8 [2] of -0.013 and a CXCL9/MIG [2] of 0.00852. The CXCL10/IP-10 [2] was 0.000432, the CXCL11/I-TAC [2] was -0.0056 and the “Collagen I” value [2] was 0.023. The “Collagen III” value [2] was 0.081, the EGFR [2] was -0.043 and the M-CSF [2] was -0.051. It also gave an MMP-1 [2] of 0.013, a PAI-I [2] of -0.032 and a Proliferation_72hr [2] of -0.119. For the same compound, the SRB [2] was 0.018, the TIMP-1 [2] was -0.010 and the TIMP-2 [2] was 0.136. It also gave a CCL2/MCP-1 [3] of 0.039, a CD38 [3] of 0.081 and a CD40 [3] of -0.033. The CD106/VCAM-1 [3] was 0.342, the CD141/Thrombomodulin [3] was 0.00066 and the “CD142/Tissue Factor” value [3] was 0.063. The CCL2/MCP-1 [4] was 0.053, the CD38 [4] was -0.040 and the CD40 [4] was -0.130. For the same compound, the CD106/VCAM-1 [4] was 0.396, the CD141/Thrombomodulin [4] was 0.021 and the “CD142/Tissue Factor” value [4] was 0.064. The CCL2/MCP-1 [5] was 0.040, the CD38 [5] was -0.022 and the CD40 [5] was -0.171. The CD106/VCAM-1 [5] was 0.307, the CD141/Thrombomodulin [5] was 0.025 and the “CD142/Tissue Factor” value [5] was 0.061. For the same compound, the CCL2/MCP-1 [6] was 0.053, the CD38 [6] was -0.066 and the CD40 [6] was -0.106. The CD106/VCAM-1 [6] was 0.175, the CD141/Thrombomodulin [6] was 0.022 and the “CD142/Tissue Factor” value [6] was 0.010. It also gave a CCL2/MCP-1 [7] of 0.058, a CD38 [7] of 0.024 and a CD40 [7] of -0.093. The CD106/VCAM-1 [7] was 0.305, the CD141/Thrombomodulin [7] was 0.019 and the “CD142/Tissue Factor” value [7] was 0.022. The CCL2/MCP-1 [8] was 0.274, the CD38 [8] was -0.028 and the CD40 [8] was -0.186. The CD106/VCAM-1 [8] was 0.375, the CD141/Thrombomodulin [8] was 0.045 and the “CD142/Tissue Factor” value [8] was 0.045. The CCL2/MCP-1 [9] was 0.148, the CD38 [9] was -0.052 and the CD40 [9] was -0.089. For the same compound, the CD106/VCAM-1 [9] was 0.250, the CD141/Thrombomodulin [9] was 0.031 and the “CD142/Tissue Factor” value [9] was 0.096. The CCL2/MCP-1 [10] was -0.076, the CD38 [10] was -0.060 and the CD40 [10] was -0.075. The CD106/VCAM-1 [10] was 0.144, the CD141/Thrombomodulin [10] was 0.022 and the “CD142/Tissue Factor” value [10] was 0.017. The CD62E/E-Selectin (HPNo, 1.00E4 nM) was 0.080, the CD69 (HPNo, 1.00E4 nM) was 0.150 and the CXCL8/IL-8 (HPNo, 1.00E4 nM) was 0.030. It also gave a CXCL9/MIG (HPNo, 1.00E4 nM) of -0.025, a M-CSF (HPNo, 1.00E4 nM) of 0.075 and an SRB (HPNo, 1.00E4 nM) of -0.053. For the same compound, the sPGE2 (HPNo, 1.00E4 nM) was 0.066, the sTNF-alpha (HPNo, 1.00E4 nM) was -0.036 and the CD62E/E-Selectin (HPNo, 1.11E3 nM) was 0.014. The CD69 (HPNo, 1.11E3 nM) was 0.063, the CXCL8/IL-8 (HPNo, 1.11E3 nM) was -0.048 and the CXCL9/MIG (HPNo, 1.11E3 nM) was -0.091. The M-CSF (HPNo, 1.11E3 nM) was 0.074, the SRB (HPNo, 1.11E3 nM) was -0.034 and the sPGE2 (HPNo, 1.11E3 nM) was 0.043. For the same compound, the sTNF-alpha (HPNo, 1.11E3 nM) was -0.019, the CD62E/E-Selectin (HPNo, 1.23E2 nM) was -0.027 and the CD69 (HPNo, 1.23E2 nM) was 0.039. The CXCL8/IL-8 (HPNo, 1.23E2 nM) was 0.011, the CXCL9/MIG (HPNo, 1.23E2 nM) was -0.025 and the M-CSF (HPNo, 1.23E2 nM) was -0.084. It also gave an SRB (HPNo, 1.23E2 nM) of -0.005, a sPGE2 (HPNo, 1.23E2 nM) of 0.030 and a sTNF-alpha (HPNo, 1.23E2 nM) of 0.010. For the same compound, the CD62E/E-Selectin (HPNo, 1.37E1 nM) was -0.035, the CD69 (HPNo, 1.37E1 nM) was -0.005 and the CXCL8/IL-8 (HPNo, 1.37E1 nM) was -0.023. For the same compound, the CXCL9/MIG (HPNo, 1.37E1 nM) was -0.068, the M-CSF (HPNo, 1.37E1 nM) was 0.015 and the SRB (HPNo, 1.37E1 nM) was 0.027. For the same compound, the sPGE2 (HPNo, 1.37E1 nM) was 0.00254, the sTNF-alpha (HPNo, 1.37E1 nM) was 0.00645 and the CD62E/E-Selectin (HPNo, 3.33E3 nM) was -0.020. The CD69 (HPNo, 3.33E3 nM) was 0.040, the CXCL8/IL-8 (HPNo, 3.33E3 nM) was -0.040 and the CXCL9/MIG (HPNo, 3.33E3 nM) was 0.018. The M-CSF (HPNo, 3.33E3 nM) was 0.034, the SRB (HPNo, 3.33E3 nM) was -0.058 and the sPGE2 (HPNo, 3.33E3 nM) was 0.038. The sTNF-alpha (HPNo, 3.33E3 nM) was -0.021, the CD62E/E-Selectin (HPNo, 3.70E2 nM) was 0.026 and the CD69 (HPNo, 3.70E2 nM) was 0.012. It also gave a CXCL8/IL-8 (HPNo, 3.70E2 nM) of -0.025, a CXCL9/MIG (HPNo, 3.70E2 nM) of -0.067 and a M-CSF (HPNo, 3.70E2 nM) of -0.063. It also gave an SRB (HPNo, 3.70E2 nM) of -0.017, a sPGE2 (HPNo, 3.70E2 nM) of 0.040 and a sTNF-alpha (HPNo, 3.70E2 nM) of -0.022. For the same compound, the CD62E/E-Selectin (HPNo, 4.12E1 nM) was -0.00169, the CD69 (HPNo, 4.12E1 nM) was 0.020 and the CXCL8/IL-8 (HPNo, 4.12E1 nM) was 0.023. The CXCL9/MIG (HPNo, 4.12E1 nM) was -0.041, the M-CSF (HPNo, 4.12E1 nM) was -0.031 and the SRB (HPNo, 4.12E1 nM) was -0.00266. It also gave a sPGE2 (HPNo, 4.12E1 nM) of 0.016, a sTNF-alpha (HPNo, 4.12E1 nM) of 0.015 and a CD62E/E-Selectin (HPNo, 4.57E0 nM) of 0.045. It also gave a CD69 (HPNo, 4.57E0 nM) of 0.075, a CXCL8/IL-8 (HPNo, 4.57E0 nM) of 0.031 and a CXCL9/MIG (HPNo, 4.57E0 nM) of -0.000203. For the same compound, the M-CSF (HPNo, 4.57E0 nM) was 0.012, the SRB (HPNo, 4.57E0 nM) was 0.035 and the sPGE2 (HPNo, 4.57E0 nM) was 0.00462. The sTNF-alpha (HPNo, 4.57E0 nM) was 0.128, the CCL2/MCP-1 (LPS Huvec+PBMC, 1.00E4 nM) was -0.081 and the CD40 (LPS Huvec+PBMC, 1.00E4 nM) was -0.109. It also gave a CD62E/E-Selectin (LPS Huvec+PBMC, 1.00E4 nM) of 0.010, a CD69 (LPS Huvec+PBMC, 1.00E4 nM) of 0.030 and a CD106/VCAM-1 (LPS Huvec+PBMC, 1.00E4 nM) of 0.079. For the same compound, the CD141/Thrombomodulin (LPS Huvec+PBMC, 1.00E4 nM) was 0.127, the “CD142/Tissue Factor” value (LPS Huvec+PBMC, 1.00E4 nM) was 0.079 and the CXCL8/IL-8 (LPS Huvec+PBMC, 1.00E4 nM) was -0.169. The IL-1alpha (LPS Huvec+PBMC, 1.00E4 nM) was 0.125, the M-CSF (LPS Huvec+PBMC, 1.00E4 nM) was 0.029 and the SRB (LPS Huvec+PBMC, 1.00E4 nM) was -0.141. The sPGE2 (LPS Huvec+PBMC, 1.00E4 nM) was 0.164, the sTNF-alpha (LPS Huvec+PBMC, 1.00E4 nM) was -0.051 and the CCL2/MCP-1 (LPS Huvec+PBMC, 1.11E3 nM) was -0.044. For the same compound, the CD40 (LPS Huvec+PBMC, 1.11E3 nM) was -0.137, the CD62E/E-Selectin (LPS Huvec+PBMC, 1.11E3 nM) was 0.000345 and the CD69 (LPS Huvec+PBMC, 1.11E3 nM) was 0.043. For the same compound, the CD106/VCAM-1 (LPS Huvec+PBMC, 1.11E3 nM) was 0.105, the CD141/Thrombomodulin (LPS Huvec+PBMC, 1.11E3 nM) was 0.090 and the “CD142/Tissue Factor” value (LPS Huvec+PBMC, 1.11E3 nM) was 0.097. For the same compound, the CXCL8/IL-8 (LPS Huvec+PBMC, 1.11E3 nM) was -0.191.
